Counter-ions that a name gives are not always drawn. Like-named read-outs stand apart in the source and are kept apart here.
Columns and labels:
Sclerotinia homoeocarpa = test: Broth protocol: control of dollar spot fungus with modified chlorins; type: cell-based; conditions: Clarireedia homoeocarpa
Method: Broth protocol: control of dollar spot fungus (Sclerotinia homoeocarpa) with modified chlorins was assessed. Treatments were prepared in Phosphate Buffered Saline (PBS) in 24 well plates (in duplicates for light vs. dark incubation) at desired concentrations. Then, a 5 mm diameter plug of a Sclerotinia homoeocarpa isolate (3 isolates total tested) was inoculated into the PBS and incubated at 21° C. in the dark for 2 hours. After 2 hours, one of the 24 well plates (with isolates in triplicate) was left in the dark and one 24 well plate was placed under illumination for 1 hour (all at 21° C.). Following illumination, fungal plugs were removed from PBS, blotted dry on sterile filter paper and transferred to non-amended Potato Dextrose Agar (PDA). Radial growth of the fungus was monitored daily until the growth of S. homoeocarpa reached the edge of the Petri-dish. Illumination was provided by LED lights emitting about 1000 μmol/m2/s photosynthetically active radiation (PAR).

[1] = Method A: photostability in a non-hydrated state (solid state), dried films under LED light; type: physicochemical; conditions: various tetrapyrroles; PVOH 89 kDa, >99% hydrolysis and tannic acid; 72 h simulated sunlight
Method: Fifty microlitres of each formulation was pipetted into 12 wells of a 96-well clear-bottom black microplate (Thomas Scientific, Swedesboro, N.J.) and dried into thin films using a dehydrator (Gourmia GFD1680) at a temperature of 45° C. for 3 h. At the beginning of the experiment, the microplate was placed under a Heliospectra RX30 LED light array (Heliospectra, San […], Calif.). The LED array was adjusted such that the microplates received on average 1300 μmol/m^2/s of light intensity. The microplate was tightly covered with aluminum foil and at select intervals peeled back to irradiate films with either 0 h, 24 h, 48 h or 72 h of light. […] An absorbance spectral scan was conducted on the microplate (350-750 nm) using a plate reader (Spectramax M2E, Molecular Devices, San Jose, Calif.) and the peak intensity was monitored at 24 h, 48 h and/or 72 h timepoints and compared with the corresponding 0 h timepoint to determine the degree of photodegradation. The % photosensitizer remaining after irradiation was calculated using the following equation: [formula] where Abst is the absorbance peak of the sample receiving t hours of light exposure; Abs0 is the absorbance peak of the sample receiving no light exposure. All data is expressed as mean±standard deviation.

[2] = Method B: photostability in solution (liquid state) under LED light; type: physicochemical; conditions: various tetrapyrroles; PVOH 89 kDa, >99% hydrolysis and tannic acid; 6 h simulated light
Method: Fifty microlitres of each formulation was pipetted into 12 wells of a 96-well clear-bottom black microplate (Thomas Scientific, Swedesboro, N.J.), followed by the addition of 50 μL dH2O. The sample was sealed with a microplate clear adhesive film to minimize water evaporation. At the beginning of experiment, the microplate was placed under a Heliospectra RX30 LED light array (Heliospectra, San […], Calif.). The LED array was adjusted such that the microplates received on average 1300 μmol/m^2/s of light intensity. […] The % photosensitizer remaining after irradiation was calculated using the following equation: [formula] where Abst is the absorbance peak of the sample receiving t hours of light exposure; Abs0 is the absorbance peak of the sample receiving no light exposure. All data is expressed as mean±standard deviation.

[3] = 1 h, read-out: Inhibition, % (Light)

## C=Cc1c(C)c2cc3nc(c(CC(=O)NCCOP(=O)(O)O)c4[nH]c(cc5nc(cc1[nH]2)C(C)=C5CC)c(C)c4C(=O)O)C(CCC(=O)O)C3C (stereo not drawn) [Ce6-mono-EP^15 amide octylammonium salt]
Sclerotinia homoeocarpa; [3]
  inhibition at 10 µM: 58%
  inhibition at 100 µM: 71%
Sclerotinia homoeocarpa; read-out: Inhibition, % (Dark)
  inhibition at 10 µM: 3%
  inhibition at 100 µM: -5%

## Aluminum chlorin e6 [Aluminum Ce6Na3]
[1]
  % photosensitizer remaining at 72 h (solid state): 91.4 ± 5.5%
[2]
  % photosensitizer remaining at 6 h (liquid state): 3.9 ± 0.2%
